Source: paper PMC8776094, “Reactive Oxygen Species Production Is Responsible for Antineoplastic Activity of Osmium, Ruthenium, Iridium and Rhodium Half-Sandwich Type Complexes with Bidentate Glycosyl Heterocyclic Ligands in Various Cancer Cell Models” (International Journal of Molecular Sciences, 2022)
pIC50: −log10 of the molar value.

What was measured:
Assay type in all cases: cell-based
[1] = system: ID8 ovarian cancer cell line; test: MTT reduction assay, 4 h, rapid toxicity, ID8; conditions: 4 h treatment; for Maximum Inhibition (%) ID8: MTT assay, ND = not detected or cannot be calculated
Protocol: The compounds were tested between 0.001694 and 33.3333 µM, using a 4-hour-long MTT test to assess rapid toxicity and a 48-hour-long SRB assay to assess the long-term effects of the inhibition of proliferation (cytostasis). The MTT assay assesses the activity of mitochondrial complex I and detects rapid, direct toxicity, as well as indicating apoptosis and necrosis. The SRB assay measures the total protein content that is proportional to cell numbers; therefore, the assay can detect changes in cell numbers and can thus be used as a readout for cell proliferation. The SRB assay was performed after 48 h of treatment (with the exception of L428 cells, which were tested for 96 h due to their slower proliferation rate). In this setting, the SRB assay informs us of long-term changes to cell proliferation. We assessed the maximal inhibition within that concentration range, and descriptive statistics were performed. We performed a one-way ANOVA, followed by the Kruskal–Wallis test, regardless of the normal or non-normal distribution of the data. Due to the large number of significance values, the results of the significance calculations are provided in an Excel spreadsheet at https://figshare.com/s/28d14597d5041f08eb08 (accessed on 6 January 2022), among other primary data of the study. Where possible, nonlinear regression was performed on the curves to determine the IC50 values ((inhibitor) vs. response—variable slope (four parameters) method with Graphpad v8.0.1). […] In Table 5, we added the IC50 values that we determined for a set of 4 active ruthenium half-sandwich complexes we identified previously, to be used in subsequent structure-activity relationship (SAR) analyses.
ID8 cells were cultured in a high-glucose DMEM (4.5 g/L glucose) medium, supplemented with 4% fetal calf serum, 2 mM glutamine, 1% penicillin-streptomycin, and 1% ITS supplement (I3146).
The MTT reduction assay measures the activity of mitochondrial complex I and can be used to detect apoptosis and necrosis. The assay was performed similarly to the method used in [72]. Briefly, cells were plated in 96-well plates the day before the assay. Cells were treated with the compounds for 4 h, then MTT was added at 0.5 mg/mL final concentration and the cells were incubated at 37 °C in a cell incubator. The culture media were removed and the reduced MTT dye was dissolved in dimethyl-sulfoxide (DMSO) and plates were measured in a plate photometer (Thermo Scientific Multiscan GO spectrophotometer, Waltham, MA, USA) at 540 nm. On each plate, wells were designed to contain untreated/vehicle-treated cells. In the calculations, the readings for these wells were considered as 1 and all readings were expressed relative to these values.

[2] = system: Capan2, a pancreatic adenocarcinoma cell line; test: SRB assay, 48 h, cytostasis, Capan2; conditions: for pIC50 / Capan2 Max. Inh. (%): SRB assay; for Capan2 Max. Inh. (%): ND = not detected
Excerpt: We turned next to assessing whether the cytostatic activity of Os-3, Os-4, Os-5, Os-6 and Ir-6 complexes is specific for ovarian cancer cell lines or if they may be active on other cell lines. To that end, we tested the complexes on another carcinoma cell line (Capan2, a pancreatic adenocarcinoma cell line), on a sarcoma cell line (Saos, an osteosarcoma cell line) and on a lymphoma cell line (L428, a Hodgkin’s lymphoma cell line).
Capan2 cells were maintained in MEM, 10% fetal bovine serum, 1% penicillin/streptomycin, and 2 mM glutamine.
(§1) The assay was performed similarly to the method used in [73]. Cells were seeded in 96-well plates the day before the assay. Cells were treated with the compounds for 48 h, with the exception of L428, where 96 h of treatment was applied. Cells were fixed with 10% trichloroacetic acid (TCA). Fixed cells were washed in distilled water 3 times, followed by staining with SRB (0.4 m/V% dissolved in 1% acetic acid) for 10 min. The stained cells were washed in 1% acetic acid 5 times; the acetic acid was removed, and the cells were left to dry. Protein-bound SRB was released by adding 100 µL 10 mM Tris base. Plates were measured in a plate photometer (Thermo Scientific Multiscan GO spectrophotometer, Waltham, MA, USA) at 540 nm. On each plate, wells were designed to contain untreated cells. In calculations, the readings for these wells were considered as 1 and all readings were expressed relative to these values.
Statistical analysis was performed using the 8.0.1 version of Graphpad Prism. Values were tested for normal distribution, using the d’Agostino and Pearson normality test. When necessary, values were log-normalized or were normalized using the Box-Cox normalization method or using a two-step transformation, as indicated in the figure captions. Nonlinear regression was performed using the built-in “[Inhibitor] vs. Response—Variable slope (four parameters), least-square fit” utility of Graphpad, yielding the IC50 and Hill slope values.
Here, 1.5 × 10^3 Capan2, 3 × 10^3 Saos cells and 10^4 L428 cells were plated onto 96-well plates. Capan2 and Saos cells were treated with the compounds in the concentrations indicated for 48 h for an SRB assay. L428 cells were treated with the compounds in the concentrations indicated for 96 h, then cells were counted using conventional microscopy and a Burker chamber. Data are represented as average ± SD, from three biological replicates; individual assays were performed in duplicate. Values were normalized for vehicle-treated cells; the absorbance for vehicle-treated cells is equal to 1. A one-way ANOVA, followed by a Kruskal–Wallis test, was performed individually for each compound. The results of the statistical analysis are presented in an Excel spreadsheet at https://figshare.com/s/28d14597d5041f08eb08 (accessed on 6 January 2022). Nonlinear regression was performed on the data.

A2780 cells = test: SRB assay with or without 1 mM vitamin E co-treatment; conditions: 48 h SRB
Protocol: To assess the causative role of oxidative stress in cytostasis induced by the compounds we identified in this study, we co-treated cells with the compounds and with vitamin E, a lipophilic antioxidant.
as §1
Figure 10 Assessment of selected Os(II) and Ir(III) complexes (Os-3‒Os-6, Ir-6) for cytostatic activity. Here, 1.5 × 10^3 A2780 cells were plated onto 96-well plates. Cells were treated with the compounds in the concentrations indicated for 48 h for an SRB assay with or without 1 mM vitamin E. Data are represented as average ± SD, from three biological replicates; individual assays were performed in duplicate. Values were normalized for vehicle-treated cells. Absorbance for vehicle-treated cells is equal to 1. Normality was assessed using the d’Agostino and Pearson test. Os-3, Os-4, Os-6, Ir-6 data had normal distribution, while in Os-5, normality was achieved using the Box-Cox normalization method. Statistical difference was assessed using a two-way ANOVA test; all measurement points were compared with each other. *, ** and *** indicate statistically significant differences between vehicle-treated (control) cells and those treated with a compound but not with vitamin E, at p < 0.05 and p < 0.001, respectively. #, ##, and ### indicate statistically significant differences between vehicle-treated (no Vitamin E) and the cells treated with a Vitamin E at p < 0.05, p < 0.01 and p < 0.001, respectively. !, !!, and !!! indicate statistically significant differences between vitamin E and vehicle-treated cells (control) and the cells treated with vitamin E and a compound at p < 0.05, p < 0.01 and p < 0.001, respectively.

Row | SMILES | cytotoxicity on ID8 cells, MTT assay (in words) [1] | Maximum Inhibition (%) ID8 [1] [%] | cytostatic activity on Capan2 cells (in words) [2] | pIC50 [2] | Capan2 Max. Inh. (%) [2] [%] | effect of vitamin E on the cytostatic properties of the complex (A2780 cells)
1 | Cc1c(C)c(C)[c-](C)c1C.F[P-](F)(F)(F)(F)F.O=C(OCC1OC(n2cc(-c3ccccn3)nn2)C(OC(=O)c2ccccc2)C(OC(=O)c2ccccc2)C1OC(=O)c1ccccc1)c1ccccc1.[Cl][Ir+2] (mixture of isomers) [Ir-6] | mild cytotoxicity | 62.71 | active on all cell lines | 5.38 | 100 | potently inhibited by vitamin E
2 | Cc1ccc(C(C)C)cc1.F[P-](F)(F)(F)(F)F.O=C(OCC1OC(c2nnc(-c3ccccn3)o2)C(OC(=O)c2ccccc2)C(OC(=O)c2ccccc2)C1OC(=O)c1ccccc1)c1ccccc1.[Cl][Os+] (mixture of isomers) [Os-3] | cytotoxic capacity to a greater extent than on A2780 cells | 35.24 | active on all cell lines | 5.06 | 100 | potently inhibited by vitamin E
3 | Cc1ccc(C(C)C)cc1.F[P-](F)(F)(F)(F)F.O=C(OCC1OC(c2nnc(-c3ccccn3)o2)C(OC(=O)c2ccccc2)C(OC(=O)c2ccccc2)C1OC(=O)c1ccccc1)c1ccccc1.[Cl][Os+] (mixture of isomers) [Os-4] | – | 22.91 | active on all cell lines | 5.21 | 100 | potently inhibited by vitamin E
4 | Cc1ccc(C(C)C)cc1.F[P-](F)(F)(F)(F)F.O=C(OC1COC(c2nnc(-c3ccccn3)o2)C(OC(=O)c2ccccc2)C1OC(=O)c1ccccc1)c1ccccc1.[Cl][Os+] (mixture of isomers) [Os-5] | cytotoxic capacity to a greater extent than on A2780 cells | 59.51 | active on all cell lines | 5.05 | 100 | potently inhibited by vitamin E
5 | Cc1ccc(C(C)C)cc1.F[P-](F)(F)(F)(F)F.O=C(OCC1OC(n2cc(-c3ccccn3)nn2)C(OC(=O)c2ccccc2)C(OC(=O)c2ccccc2)C1OC(=O)c1ccccc1)c1ccccc1.[Cl][Os+] (mixture of isomers) [Os-6] | cytotoxic capacity to a greater extent than on A2780 cells | 64.44 | active on all cell lines | 5.77 | 100 | potently inhibited by vitamin E
